Reference: US9120728B2, “Modulators of cortical dopaminergic- and NMDA-receptor-mediated glutamatergic neurotransmission” (INTEGRATIVE RESEARCH LABORATORIES SWEDEN AB, priority 2011, dated 2015)
Structures can show the parent of a compound that is named as a salt.

How the values were obtained:
[1] = tested on: DOPAC (3,4-dihydroxyphenylacetic acid) in the rat striatum; test: Increase of DOPAC (3,4-dihydroxyphenylacetic acid) in the rat striatum after systemic administration; type: in vivo; conditions: sc, estimated ED50 on increase of DOPAC in rat striatum, dose range 0-100 μmol/kg s.c., curve fitting
Excerpt: The increased turnover of dopamine in the terminal areas of the ascending dopaminergic projections of the mammalian brain can be illustrated by measuring of changes in biochemical indices in the brain with the characteristic features of dopamine antagonists, e.g. producing increases in concentrations of dopamine metabolites such as 3,4-dihydroxyphenyl-acetic acid (DOPAC) in the striatum.
After the behavioural activity sessions, the rats are decapitated and their brains rapidly taken out and put on an ice-cold petri-dish. The limbic forebrain, the striatum, the frontal cortex and the remaining hemispheral parts of each rat are dissected and frozen. Each brain part is subsequently analyzed with respect to its content of monoamines and their metabolites.
The monoamine transmitter substances (NA (noradrenaline), DA (dopamine), 5-HT (serotonin)) as well as their amine (NM (normethanephrine), 3-MT (3-methoxytyramine)) and acid (DOPAC (3,4-dihydroxyphenylacetic acid), 5-HIAA (5-hydroxyindoleacetic acid), HVA (homovanillic acid)) metabolites are quantified in brain tissue homogenates by HPLC separations and electrochemical detection
The analytical method is based on two chromatographic separations dedicated for amines or acids. Two chromatographic systems share a common auto injector with a 10-port valve and two sample loops for simultaneous injection on the two systems. Both systems are equipped with a reverse phase column (Luna C18(2), dp 3 μm, 50×2 mm i.d., Phenomenex) and electrochemical detection is accomplished at two potentials on glassy carbon electrodes (MF-1000, Bioanalytical Systems, Inc.). The column effluent is passed via a T-connection to the detection cell or to a waste outlet. This is accomplished by two solenoid valves, which block either the waste or detector outlet. By preventing the chromatographic front from reaching the detector, better detection conditions are achieved. The aqueous mobile phase (0.4 ml/min) for the acid system contains citric acid 14 mM, sodium citrate 10 mM, MeOH 15% (v/v) and EDTA 0.1 mM. Detection potentials relative to Ag/AgCl reference are 0.45 and 0.60V. […] Detection potentials relative to Ag/AgCl reference are 0.45 and 0.65V.
ED50 value for the increase of DOPAC in striatum is calculated by curve fitting. The evaluation is based on 40 animals over the dose range 0, 3.7, 11, 33 and 100 μmol/kg s.c. in two combined experiments. The DOPAC levels are normalised to control and fitted by least square minimization to the function “End-(End-Control)/(1+(dose/ED50)^slope)”. The four parameters (Control, End, ED50 and Slope) are fitted with the restrictions: ED50>0, 0.5<Slope<3, 350<End<400% of control. To estimate confidence levels for the parameters, the fit is repeated 100 times with a random evenly distributed squared weight (0 to 1) for every measurement value. Presented ED50-ranges cover 95% of these values.

[2] = tested on: drug-naive rats; test: Effects on spontaneous locomotion (locomotor activity in drug-naive rats); type: in vivo, rat; conditions: recorded for 60 minutes immediately after drug administration
Procedure: Prior art dopamine receptor antagonists are known to induce profound decrease in locomotor activity (catalepsy).
Behavioural activity is measured using eight Digiscan activity monitors (RXYZM (16) TAO, Omnitech Electronics, Columbus, Ohio, USA), connected to an Omnitech Digiscan analyzer and an Apple Macintosh computer equipped with a digital interface board (NB DIO-24, National Instruments, USA). Each activity monitor consists of a quadratic metal frame (W×L=40 cm×40 cm) equipped with photobeam sensors. During measurements of behavioural activity, a rat is put in a transparent acrylic cage (WxLxH, 40×40×30 cm) which in turn is placed in the activity monitor. Each activity monitor is equipped with three rows of infrared photobeam sensors, each row consisting of 16 sensors. Two rows are placed along the front and the side of the floor of the cage, at a 90° angle, and the third row is placed 10 cm above the floor to measure vertical activity. Photobeam sensors are spaced 2.5 cm apart. Each activity monitor is fitted in an identical sound and light attenuating box containing a weak house light and a fan.
The computer software is written using object oriented programming (LabVIEW®, National instruments, Austin, Tex., USA).
Behavioural data from each activity monitor, representing the position (horizontal center of gravity and vertical activity) of the animal at each time, are recorded at a sampling frequency of 25 Hz and collected using a custom written LABView™ application. The data from each recording session are stored and analyzed with respect to distance traveled. Each behavioural recording session lasts 60 min, starting approximately 4 min after the injection of test compound. Similar behavioural recording procedures are applied for drug-naïve and drug pre-treated rats. Rats pre-treated with d-amphetamine are given a dose of 1.5 mg/kg i.p. 10 min before the recording session in the activity monitor. Rats pre-treated with MK-801 are given a dose of 0.7 mg/kg i.p. 90 min before the recording session in the activity monitor. The results are presented as counts/60 minutes, or counts/30 minutes, in arbitrary length units. Statistical comparisons are carried out using Student's t-test against the control group. In MK-801 or amphetamine pre-treated animals, statistical comparisons are made against the MK801 or d-amphetamine controls, respectively.

[3] = tested on: MK-801 pre-treated rats; test: Reduction of MK-801-induced hyper-locomotion; type: in vivo; conditions: Rattus norvegicus; MK-801 0.7 mg/kg i.p. 90 minutes before test compound; locomotor activity between 45 and 60 minutes after administration; 0-100 μmol/kg s.c.
Excerpt: Reduction of MK-801-Induced Hyper-Locomotion Another animal model of antipsychotic activity is based on administration of the glutamate antagonist MK-801. Glutamate antagonists (i.e. NMDA antagonists), can induce psychoses in man (see Psychopharmacology, 4th Generation of progress Chapter 101, p. 1205 and 1207) and induce behavioural aberrations in animals. Thus, the ability of a drug to affect schizophrenia and psychotic states can be measured using behavioural models based on experimentally-induced hypoglutamatergic states. In this study the NMDA antagonist MK-801 (0.7 mg/kg i.p.) was used to create a hypoglutamatergic state where the rats display abnormal, hyperactive behaviour.
(§1) Behavioural activity is measured using eight Digiscan activity monitors (RXYZM (16) TAO, Omnitech Electronics, Columbus, Ohio, USA), connected to an Omnitech Digiscan analyzer and an Apple Macintosh computer equipped with a digital interface board (NB DIO-24, National Instruments, USA). […]
(§2) Behavioural data from each activity monitor, representing the position (horizontal center of gravity and vertical activity) of the animal at each time, are recorded at a sampling frequency of 25 Hz and collected using a custom written LABView™ application. The data from each recording session are stored and analyzed with respect to distance traveled. […]

[4] = tested on: d-amphetamine pre-treated rats; test: Reduction of amphetamine-induced hyper-locomotion; type: in vivo; conditions: Rattus norvegicus; rats pre-treated with d-amphetamine 1.5 mg/kg i.p.; test compound 0-100 μmol/kg s.c.; distance during last 45 minutes of one hour
Excerpt: The increase in activity after treatment with d-amphetamine is a standard model of hyperdopaminergia. In this model, dopaminergic neurotransmission is increased by systemic administration of d-amphetamine at a dose that is sufficiently high to produce a large increase in locomotor activity. The ability of a compound to antagonize this hyperactivity reflects anti-dopaminergic properties. Furthermore, antagonism of d-amphetamine induced hyperactivity is widely used as a standard assay of antipsychotic activity (see Psychopharmacology 4th Generation of progress Chapter 68, p 793-795).
as §1, §2
ED50 value for reduction of amphetamine-induced hyper-locomotion is calculated by curve fitting. […]

Row | Compound | melting point [°C] | ED50 [1] [µmol/kg] | Locomotor activity ([2]; 3.7 μmol/kg) [counts/60 min] | Locomotor activity ([2]; 11 μmol/kg) [counts/60 min] | Locomotor activity ([2]; 33 μmol/kg) [counts/60 min] | further results
1 | CC(C)NCCOc1cc(F)cc(S(C)(=O)=O)c1 (as salt: hydrochloric acid salt) [Example 9, N-[2-(3-fluoro-5-methylsulfonyl-phenoxy)ethyl]propan-2-amine] | 173 |  |  |  |  | 
2 | CCCN(C)CCOc1cc(F)cc(S(C)(=O)=O)c1 (as salt: hydrochloric acid salt) [Example 4, N-[2-(3-fluoro-5-methylsulfonyl-phenoxy)ethyl]-N-methyl-propan-1-amine] | 128 to 130 |  |  |  |  | 
3 | CS(=O)(=O)c1cc(F)cc(OCCNC2CCCC2)c1 (as salt: hydrochloric acid salt) [Example 6, N-[2-(3-fluoro-5-methylsulfonyl-phenoxy)ethyl]cyclopentanamine] | 207.5 |  |  |  |  | 
4 | CCCNCCOc1cc(Cl)cc(S(C)(=O)=O)c1 [Example 12, N-[2-(3-chloro-5-methylsulfonyl-phenoxy)ethyl]propan-1-amine] |  | 10.5 | 14414 | 12740 | 7826 | 
5 | CS(=O)(=O)c1cc(F)cc(OCCNC2CCC2)c1 [Example 8, N-[2-(3-fluoro-5-methylsulfonyl-phenoxy)ethyl]cyclobutanamine] |  | 36 | 10319 | 12888 | 12872 | ED50 [3]: 40 µmol/kg
6 | CCCN(C)CCOc1cc(F)cc(S(C)(=O)=O)c1 [Example 4, N-[2-(3-fluoro-5-methylsulfonyl-phenoxy)ethyl]-N-methyl-propan-1-amine] |  | 28.1 | 11435 | 10025 | 12829 | ED50 [4]: 69 µmol/kg
7 | CS(=O)(=O)c1cc(F)cc(OCCN2CCCCC2)c1 (as salt: hydrochloric acid salt) [Example 10, 1-[2-(3-fluoro-5-methylsulfonyl-phenoxy)ethyl]piperidine] | 194.6 |  |  |  |  | 
8 | CS(=O)(=O)c1cc(F)cc(OCCNC2CCC2)c1 (as salt: hydrochloric acid salt) [Example 8, N-[2-(3-fluoro-5-methylsulfonyl-phenoxy)ethyl]cyclobutanamine] | 202 |  |  |  |  | 
9 | CCCCNCCOc1cc(F)cc(S(C)(=O)=O)c1 (as salt: hydrochloric acid salt) [Example 2, N-[2-(3-fluoro-5-methylsulfonyl-phenoxy)ethyl]butan-1-amine] | 204 |  |  |  |  | 
10 | CS(=O)(=O)c1cc(F)cc(OCCN2CCCCC2)c1 [Example 10, 1-[2-(3-fluoro-5-methylsulfonyl-phenoxy)ethyl]piperidine] |  | 14.5 | 11979 | 9344 | 8144 | 
11 | CCCCNCCOc1cc(F)cc(S(C)(=O)=O)c1 [Example 2, N-[2-(3-fluoro-5-methylsulfonyl-phenoxy)ethyl]butan-1-amine] |  | 4.2 | 13941 | 8617 | 6325 | 
12 | CCC(C)(C)NCCOc1cc(F)cc(S(C)(=O)=O)c1 (as salt: hydrochloric acid salt) [Example 7, N-[2-(3-fluoro-5-methylsulfonyl-phenoxy)ethyl]-2-methyl-butan-2-amine] | 190.2 |  |  |  |  | 
13 | CCC(C)NCCOc1cc(F)cc(S(C)(=O)=O)c1 (stereo not drawn) (as salt: hydrochloric acid salt) [Example 5, N-[2-(3-fluoro-5-methylsulfonyl-phenoxy)ethyl]butan-2-amine] | 166.5 |  |  |  |  | 
14 | CCNCCOc1cc(F)cc(S(C)(=O)=O)c1 (as salt: hydrochloric acid salt) [Example 3, N-ethyl-2-(3-fluoro-5-methylsulfonyl-phenoxy)ethanamine] | 200.8 to 201.1 |  |  |  |  | 
15 | CCCNCCOc1cc(Cl)cc(S(C)(=O)=O)c1 (as salt: hydrochloric acid salt) [Example 12, N-[2-(3-chloro-5-methylsulfonyl-phenoxy)ethyl]propan-1-amine] | 195 to 197 |  |  |  |  | 
16 | CCN(CC)CCOc1cc(F)cc(S(C)(=O)=O)c1 (as salt: hydrochloric acid salt) [Example 11, N,N-diethyl-2-(3-fluoro-5-methylsulfonyl-phenoxy)ethanamine] | 172.3 |  |  |  |  | 
